Literature values as cited in patent publication US20210085696A1, “FORMULATIONS COMPRISING CHELATORS, PERMEATION ENHANCERS AND HYDROXYETHYL CELLULOSE FOR TREATING OPHTHALMIC DISORDERS” (LIVIONEX, Inc., priority 2018, published 2021).

Settings: @ 79° F.

Compound: CS(C)(=O)=O [MSM, methylsulfonylmethane]
- water solubility: 34 % w/v
